Assay results reported in patent publication US20140329863A1 (priority 2011, published 2014).
Values after ≈ are worked out from the molar mass of the structure shown. Like-named read-outs stand apart in the source and are kept apart here.

What was measured:
[1] = Hepatic microsomal stability, rat; details: for half-life at 1 μM: Sprague-Dawley, pH 7.4
in vitro = details: dog, MDCK-MDR1
P-gp (MDR1) = assay: in vitro; details: dog, MDCK-MDR1
[2] = Hepatic microsome stability, human; type: in vitro ADME; details: human liver microsomes
Method: (§1) Hepatic microsomal stability assays were performed in two stages. In the first set of experiments, aliquots of the DMSO solute stocks were diluted into ACN and then into assay buffer (PBS, pH 7.4, ±0.05% PS80). Final experimental solute concentrations were 1 μM (0.6% ACN, 0.01% DMSO). Commercially available mouse, rat, or human hepatic microsomes (˜0.5 mg/ml final concentration), and NADPH (1 mM) or PBS were added. The resulting mixture was incubated at 37° C., and aliquots removed at 0, 1, 10, 30 and 60 min, then quenched with ACN containing 2 μM carbamazepine (internal standard). […] Duplicate incubations were run for each time-point. The percentage of solute remaining at the end of the incubation was used to determine solute half-life.
(§2) These were diluted 500-fold into 1 mL of microsomal incubation mixture to yield a final concentration of 1 μM. The incubation mixture was composed of 100 mM phosphate buffer, pH 7.4, and NADPH regenerating system (BD Biosciences NADPH Regenerating System Solutions A & B). This mixture was preincubated at 37° C. for 5 min in an Eppendorf Thermo mixer, and the reaction initiated by addition of 0.5 mg (25 μl of a 20 mg/mL solution) of liver microsomes. Aliquots (100 μl) were withdrawn at 0, 5, 15, 30, and 60 min, and added to 100 μl ACN containing internal standard. […] The percentage of solute remaining at the end of the incubation was used to determine species-specific values of scaled intrinsic clearance, hepatic clearance, and predicted hepatic extraction based upon the calculations below {Obach, 1999 #9097}.
(§3) for which mg microsomal protein/gm liver was 45 for all species, and gm liver/kg body weight were 32 for dog, 88 for mouse, 40 for rat and 25 for human.
(§4) Clh=(Q*Clint,scaled)/(Q+Clint,scaled)
(§5) for which Q was hepatic blood flow; values of 90 ml/min/kg for mouse, 66 ml/min/kg for rat, and 21 ml/min/kg for human were used.
(§6) for which ER estimates the amount of compound cleared during a single pass through the liver (Low ER<0.3, moderate ER 0.3-0.7, high ER>0.7).

[3] = Hepatic microsomal stability, mouse; details: for half-life at 1 μM: CD-1, mouse, pH 7.4
[4] = Hepatic microsomal stability, human; details: for half-life at 1 μM: pH 7.4
[5] = system: PrP^Sc in dividing ScN2a-cl3 cells; type: cell-based, mouse
[6] = Multidose (three-day) pharmacokinetics in liquid diet in FVB mice; details: for concentration at 3 days: FVB, mouse, in vivo
[7] = Hepatic microsome stability, mouse; type: in vitro ADME; details: mouse liver microsomes
Method: as §1, §2, §3, §4, §5, §6

[8] = Table 29, 2-AMT analogs tested for potency, usually n = 3 or more
[9] = 40 mg/kg, Brain Concentration (Css), three-day dosing in liquid diet, brain
[10] = 40 mg/kg, Plasma Concentration (Css), three-day dosing in liquid diet, plasma
[11] = 80 mg/kg, Plasma Concentration (Css), three-day dosing in liquid diet, plasma
[12] = 130 mg/kg, Brain Concentration (Css), three-day dosing in liquid diet, brain
[13] = 130 mg/kg, Plasma Concentration (Css), three-day dosing in liquid diet, plasma
[14] = 210 mg/kg, Brain Concentration (Css), three-day dosing in liquid diet, brain
[15] = 210 mg/kg, Plasma Concentration (Css), three-day dosing in liquid diet, plasma
[16] = Brain and plasma concentrations, 40, 80, 130 and 210 mg/kg/day for 3 days
[17] = cell culture media, plasma or biological fluid
[18] = pH 2 (HCl) buffer, pH 2, simulated gastric fluid
[19] = pH 7.4 (phosphate) buffer, pH 7.4, aqueous buffer
[20] = 80 mg/kg, Brain Concentration (Css), three-day dosing in liquid diet, brain

COc1ccc(-c2csc(Nc3ccc4ccccc4n3)n2)cc1OC [IND47, [4-(3,4-Dimethoxy-phenyl)-thiazol-2-yl]-quinolin-2-yl-amine]
half-life at 1 μM ([1]; rat): > 60 min
% remaining after a 60-min incubation, Rat [1]: 50%
Hepatic Extraction Ratio Rat ([1]; rat microsomes): 0.5
t1/2 Rat (extrapolated) ([1]; rat microsomes, * extrapolated): 69* min
Papp A→B (in vitro): 9.2 ×10⁻⁶ cm/s
Papp B→A (in vitro): 8.9 ×10⁻⁶ cm/s
efflux ratio (P-gp (MDR1)): 1
hepatic extraction ratio (ER) [2]: lower to moderate
half-life at 1 μM ([3]; liver microsomes): 72 min
half-life at 1 μM ([3]; mouse liver microsomes): > 60 min
% remaining after a 60-min incubation, Mouse ([3]; mouse liver microsomes): 56%
Hepatic Extraction Ratio Mouse ([3]; mouse microsomes): 0.6
% remaining after a 60-min incubation, Human ([4]; human liver microsomes): 113%
half-life at 1 μM ([4]; human, human liver microsomes): > 60 min
half-life at 1 μM ([4]; human, liver microsomes): > 60 min
EC50 ([5]; AMT analogs tested for potency): 426 nM
EC50 [5, 8]: 426 nM
concentration at 3 days [6, 9]: 400 ± 280 nM
concentration at 3 days [6, 10]: 130 ± 100 nM
concentration at 3 days [6, 11]: 30 ± 20 nM
concentration at 3 days [6, 12]: 400 ± 510 nM
concentration at 3 days [6, 13]: 60 ± 20 nM
concentration at 3 days [6, 14]: 230 ± 260 nM
concentration at 3 days [6, 15]: 120 ± 50 nM
concentration at 3 days [6, 16]: ≤ 1000 nM
hepatic extraction ratio (ER) [7]: lower to moderate
solubility (physchem; FaSSIF): 5 µM (≈ 1.82 µg/mL)
solubility (physchem; [17]): 52 µM (≈ 18.9 µg/mL)
solubility (physchem; [18]): < 1 µM
solubility (physchem; [19]): < 1 µM

Cc1ccnc(Nc2nc(-c3ccncc3)cs2)c1 [IND52, (4-Methyl-pyridin-2-yl)-(4-pyridin-4-yl-thiazol-2-yl)-amine]
half-life at 1 μM ([1]; rat): 16 min
% remaining after a 60-min incubation, Rat [1]: 8%
Hepatic Extraction Ratio Rat ([1]; rat): 0.8
Hepatic Extraction Ratio Rat ([1]; rat microsomes): 0.8
Papp A→B (in vitro): 36.2 ×10⁻⁶ cm/s
Papp B→A (in vitro): 48.7 ×10⁻⁶ cm/s
efflux ratio (P-gp (MDR1)): 1.3
hepatic extraction ratio (ER) [2]: higher
half-life at 1 μM ([3]; liver microsomes): 6 min
half-life at 1 μM ([3]; mouse liver microsomes): 6 min
Hepatic Extraction Ratio Mouse ([3]; mouse): 0.95
% remaining after a 60-min incubation, Mouse ([3]; mouse liver microsomes): 0%
Hepatic Extraction Ratio Mouse ([3]; mouse microsomes): 0.95
Hepatic Extraction Ratio Human ([4]; human): 0.8
% remaining after a 60-min incubation, Human ([4]; human liver microsomes): 30%
Hepatic Extraction Ratio Human ([4]; human microsomes): 0.8
half-life at 1 μM ([4]; human, human liver microsomes): 36 min
half-life at 1 μM ([4]; human, liver microsomes): 36 min
EC50 ([5]; AMT analogs tested for potency): 4950 nM
EC50 [5, 8]: 4950 nM
concentration at 3 days [6, 10]: 10 ± 10 nM
concentration at 3 days [6, 20]: 760 ± 1090 nM
concentration at 3 days [6, 11]: 670 ± 1000 nM
concentration at 3 days [6, 12]: 2340 ± 2130 nM
concentration at 3 days [6, 13]: 1930 ± 1580 nM
concentration at 3 days [6, 14]: 7650 ± 5570 nM
concentration at 3 days [6, 15]: 10900 ± 8440 nM
Brain Concentration (Css), 40 mg/kg ([6]; three-day dosing in liquid diet, 40 mg/kg, brain): no measurable brain concentrations
hepatic extraction ratio (ER) [7]: higher
solubility (physchem; FaSSIF): 2 µM (≈ 0.537 µg/mL)
solubility (physchem; [17]): 76 µM (≈ 20.4 µg/mL)
solubility (physchem; [18]): 215 µM (≈ 57.7 µg/mL)
solubility (physchem; [19]): 1 µM (≈ 0.268 µg/mL)

c1ccc2cc(Nc3nc(-c4ccncc4)cs3)ncc2c1 [IND85, Isoquinolin-3-yl-(4-pyridin-4-yl-thiazol-2-yl)-amine]
half-life at 1 μM ([1]; rat): 18 min
% remaining after a 60-min incubation, Rat [1]: 32%
Hepatic Extraction Ratio Rat ([1]; rat): 0.8
Hepatic Extraction Ratio Rat ([1]; rat microsomes): 0.8
Papp A→B (in vitro): 3.03 ×10⁻⁶ cm/s
Papp B→A (in vitro): 4.44 ×10⁻⁶ cm/s
efflux ratio (P-gp (MDR1)): 1.5
hepatic extraction ratio (ER) [2]: higher
half-life at 1 μM ([3]; liver microsomes): 15 min
half-life at 1 μM ([3]; mouse liver microsomes): 15 min
Hepatic Extraction Ratio Mouse ([3]; mouse): 0.9
% remaining after a 60-min incubation, Mouse ([3]; mouse liver microsomes): 6%
Hepatic Extraction Ratio Mouse ([3]; mouse microsomes): 0.9
Hepatic Extraction Ratio Human ([4]; human): 0.7
% remaining after a 60-min incubation, Human ([4]; human liver microsomes): 66%
Hepatic Extraction Ratio Human ([4]; human microsomes): 0.7
half-life at 1 μM ([4]; human, human liver microsomes): 53 min
half-life at 1 μM ([4]; human, liver microsomes): 53 min
EC50 ([5]; AMT analogs tested for potency): 307 nM
EC50 [5, 8]: 307 nM
concentration at 3 days [6, 9]: 20 ± 30 nM
concentration at 3 days [6, 20]: 80 ± 30 nM
concentration at 3 days [6, 12]: 40 ± 30 nM
concentration at 3 days [6, 14]: 100 ± 70 nM
concentration at 3 days [6, 16]: ≤ 1000 nM
hepatic extraction ratio (ER) [7]: higher
solubility (physchem; FaSSIF): 3 µM (≈ 0.913 µg/mL)
solubility (physchem; [17]): 116 µM (≈ 35.3 µg/mL)
solubility (physchem; [18]): 196 µM (≈ 59.7 µg/mL)
solubility (physchem; [19]): < 1 µM
